Tests used:
Aphis craccivoral = experiment: Insecticidal activity against Aphis craccivoral by immersing (dipping aphids on bean sprout); type: in vivo; conditions: for mortality (%) (500 ppm) Aphis: 23° C.
Description: (§1) Test on the insecticidal activity of Compound Nos. 1-227
Aphis, which belongs to Homoptera and has a piercing-sucking mouthpart, is a common insect for agricultural plant. Aphis craccivoral was tested by the way of immersing.
Test method: exactly weighed various samples were independently added to N,N-dimethylformamide to form a 10 g/L stock solution. The mixture was diluted with 0.2 mL/L aqueous Triton X-100 solution to a concentration of 500 ug/mL. After stably sucking on bean sprout, the adult aphis without wings together with bean sprout was dipped into 500 ug/mL dilution, taken out after 5 seconds, and the excess dilution was sucked out with bibulous paper and the adult aphis without wings was incubated in clean vessel at a constant temperature of 23° C. Each concentration was repeated for 3 times and the control group contained 0.2 mL/L aqueous Triton X-100 solution. The number of killed aphis was counted after 24 hours to calculate the mortality.

Nilaparvata lugens = experiment: Insecticidal activity against Nilaparvata lugens (planthopper) by spraying; type: in vivo; conditions: for mortality (%) (500 ppm) Nilaparvata-lugens: spraying 2 ml per tumbler, killed counted after 24 hours; for mortality (%) (500 ppm) Nilaparvata lugens: spraying 2 ml, counted after 24 hours
Description: as §1
Planthopper, which belongs to Homoptera and has a piercing-sucking mouthpart, is a common insect for agricultural plant. Nilaparvata lugens was tested by the way of spraying.
Test method: the test compound was exactly formulated into a solution having a certain concentration and clean water was used as a blank control. Each process was repeated for 3 tumblers (3 times). 2 ml of solution was sprayed uniformly to each tumbler by a mini manual sprayer. 10 Nilaparvata lugens were introduced to every sink 6 hours before spraying. Three series of experiments were conducted. The number of killed Nilaparvata lugens was counted after 24 hours to calculate the mortality.

[1] = 500 ppm (500 ug/mL dilution), dipped 5 seconds, killed aphis counted after 24 hours
[2] = 500 ppm, immersing (dipped 5 seconds), counted after 24 hours

CCCC(C)N=C1CCC([N+](=O)[O-])=C2N(Cc3ccc(Cl)nc3)CCCN12 (stereo not drawn) [Compound 210]
mortality (%) (500 ppm) Aphis (Aphis craccivoral; [1]): 7%
mortality (%) (500 ppm) Nilaparvata-lugens (Nilaparvata lugens): 77%

COC1CCC([N+](=O)[O-])=C2N(Cc3ccc(Cl)nc3)CCN21 (stereo not drawn) [Compound 2]
mortality at 500 ppm (Aphis craccivoral; Aphis, 24 h, read-out: mortality (%) (500 ppm) Aphis): 100%
mortality at 500 ppm (Nilaparvata lugens; Nilaparvata lugens, 24 h, read-out: mortality (%) (500 ppm) Nilaparvata lugens): 100%

O=[N+]([O-])C1=C2N(CC3CCOC3)CCN2C(OCCCl)CC1 (stereo not drawn) [Compound 48]
mortality (%) (500 ppm) Aphis (Aphis craccivoral; [2]): 3%
mortality (%) (500 ppm) Nilaparvata lugens (Nilaparvata lugens): 0%

O=C(OC1CCC([N+](=O)[O-])=C2N(Cc3ccc(Cl)nc3)CCN21)c1cccnc1 (stereo not drawn) [Compound 120]
mortality (%) (500 ppm) Aphis (Aphis craccivoral; [2]): 1%
mortality (%) (500 ppm) Nilaparvata lugens (Nilaparvata lugens): 5%

CCCCOC1CCC([N+](=O)[O-])=C2N(Cc3cnc(Cl)s3)CCCN21 (stereo not drawn) [Compound 93]
mortality (%) (500 ppm) Aphis (Aphis craccivoral; [2]): 7%
mortality (%) (500 ppm) Nilaparvata lugens (Nilaparvata lugens): 8%

CC(C)(C)SC1CCC([N+](=O)[O-])=C2N(Cc3cnc(Cl)s3)CCN21 (stereo not drawn) [Compound 181]
mortality (%) (500 ppm) Aphis (Aphis craccivoral; [1]): 45%
mortality (%) (500 ppm) Nilaparvata-lugens (Nilaparvata lugens): 78%

CC(C)N=C1CCC([N+](=O)[O-])=C2N(Cc3cnc(Cl)s3)CCCN12 [Compound 227]
mortality (%) (500 ppm) Aphis (Aphis craccivoral; [1]): 100%
mortality (%) (500 ppm) Nilaparvata-lugens (Nilaparvata lugens): 100%

O=C(OC1CCC([N+](=O)[O-])=C2N(Cc3cnc(Cl)s3)CCN21)c1cc(F)c(F)c([N+](=O)[O-])c1F (stereo not drawn) [Compound 169]
mortality (%) (500 ppm) Aphis (Aphis craccivoral; [1]): 2%
mortality (%) (500 ppm) Nilaparvata-lugens (Nilaparvata lugens): 13%

CN=C1CCC([N+](=O)[O-])=C2N(Cc3ccc(Cl)nc3)CCN12 [Compound 189]
mortality (%) (500 ppm) Aphis (Aphis craccivoral; [1]): 100%
mortality (%) (500 ppm) Nilaparvata-lugens (Nilaparvata lugens): 100%

C=CCOC1CCC([N+](=O)[O-])=C2N(CC3CCOC3)CCN21 (stereo not drawn) [Compound 64]
mortality (%) (500 ppm) Aphis (Aphis craccivoral; [2]): 37%
mortality (%) (500 ppm) Nilaparvata lugens (Nilaparvata lugens): 46%

CC(C)CCN=C1CCC([N+](=O)[O-])=C2N(Cc3ccc(Cl)nc3)CCN12 [Compound 196]
mortality (%) (500 ppm) Aphis (Aphis craccivoral; [1]): 12%
mortality (%) (500 ppm) Nilaparvata-lugens (Nilaparvata lugens): 25%

O=C(OC1CCC([N+](=O)[O-])=C2N(Cc3ccc(Cl)nc3)CCN21)c1ccc(Cl)c(Cl)c1 (stereo not drawn) [Compound 131]
mortality (%) (500 ppm) Aphis (Aphis craccivoral; [2]): 3%
mortality (%) (500 ppm) Nilaparvata lugens (Nilaparvata lugens): 0%

CCC(C)SC1CCC([N+](=O)[O-])=C2N(Cc3ccc(Cl)nc3)CCN21 (stereo not drawn) [Compound 141]
mortality (%) (500 ppm) Aphis (Aphis craccivoral; [2]): 56%
mortality (%) (500 ppm) Nilaparvata lugens (Nilaparvata lugens): 89%

O=[N+]([O-])C1=C2N(Cc3ccc(Cl)nc3)CCN2C(OS(=O)(=O)C(F)(F)F)CC1 (stereo not drawn) [Compound 118]
mortality (%) (500 ppm) Aphis (Aphis craccivoral; [2]): 81%
mortality (%) (500 ppm) Nilaparvata lugens (Nilaparvata lugens): 100%

O=C(OC1CCC([N+](=O)[O-])=C2N(Cc3ccc(Cl)nc3)CCN21)c1cc(F)c(F)c(F)c1F (stereo not drawn) [Compound 128]
mortality (%) (500 ppm) Aphis (Aphis craccivoral; [2]): 0%
mortality (%) (500 ppm) Nilaparvata lugens (Nilaparvata lugens): 21%

O=[N+]([O-])C1=C2N(Cc3ccc(Cl)nc3)CCCN2C(OCC(F)(F)F)CC1 (stereo not drawn) [Compound 75]
mortality (%) (500 ppm) Aphis (Aphis craccivoral; [2]): 88%
mortality (%) (500 ppm) Nilaparvata lugens (Nilaparvata lugens): 100%

CCCC(C)OC1CCC([N+](=O)[O-])=C2N(CC3CCOC3)CCN21 (stereo not drawn) [Compound 61]
mortality (%) (500 ppm) Aphis (Aphis craccivoral; [2]): 56%
mortality (%) (500 ppm) Nilaparvata lugens (Nilaparvata lugens): 89%

CC(C)COC1CCC([N+](=O)[O-])=C2N(CC3CCOC3)CCCN21 (stereo not drawn) [Compound 108]
mortality (%) (500 ppm) Aphis (Aphis craccivoral; [2]): 1%
mortality (%) (500 ppm) Nilaparvata lugens (Nilaparvata lugens): 9%

N=C1CCC([N+](=O)[O-])=C2N(Cc3ccc(Cl)nc3)CCCN12 [Compound 201]
mortality (%) (500 ppm) Aphis (Aphis craccivoral; [1]): 54%
mortality (%) (500 ppm) Nilaparvata-lugens (Nilaparvata lugens): 55%

COCCSC1CCC([N+](=O)[O-])=C2N(Cc3cnc(Cl)s3)CCN21 (stereo not drawn) [Compound 186]
mortality (%) (500 ppm) Aphis (Aphis craccivoral; [1]): 97%
mortality (%) (500 ppm) Nilaparvata-lugens (Nilaparvata lugens): 100%

C#CCOC1CCC([N+](=O)[O-])=C2N(Cc3cnc(Cl)s3)CCN21 (stereo not drawn) [Compound 42]
mortality (%) (500 ppm) Aphis (Aphis craccivoral; [2]): 45%
mortality (%) (500 ppm) Nilaparvata lugens (Nilaparvata lugens): 100%

Reference: patent US7655665B2, “Nitromethylene derivatives and their use” (East China University of Science and Technology, priority 2004, dated 2010)
